How the values were obtained:
folate receptor [1] = biological target: T1, folate receptor (Homo sapiens, UniProt P15328); test: ex vivo biodistribution studies in nude mice bearing KB xenografts tumors; conditions: nude mice, KB xenograft tumors; ~2 MBq radiotracer; blockade group 200 μg natural folic acid 10 min prior; 90 min post injection
T1 construct: endogenous in cells; host or cells: KB tumour xenografts in nude mice
Protocol: (§1) 2′-[^18F]fluoro-folic acid was applied in ex vivo biodistribution studies using eight nude mice bearing KB xenografts tumors. ˜2 MBq of the radiotracer were injected into each animal. In a blockade group 200 μg natural folic acid was injected 10 min prior to the radiotracer. The animals were scarified 90 min post injection.

folate receptor [2] = test: as above
Protocol: as §1

folate receptor [3] = test: in vivo PET imaging in nude mice bearing KB xenografts tumors
Protocol: In vivo PET imaging using the 2′-[^18F]fluoro-folic acid was performed in nude mice bearing KB xenografts tumors. Ca. 10 MBq of the radiotracer were injected into each animal. In the blockade group 200 μg natural folic acid was injected 10 min prior to the radiotracer. The PET scans were acquired from 30 min to 90 min post injection.

T1 sequence (P15328 25-234 limits assumed): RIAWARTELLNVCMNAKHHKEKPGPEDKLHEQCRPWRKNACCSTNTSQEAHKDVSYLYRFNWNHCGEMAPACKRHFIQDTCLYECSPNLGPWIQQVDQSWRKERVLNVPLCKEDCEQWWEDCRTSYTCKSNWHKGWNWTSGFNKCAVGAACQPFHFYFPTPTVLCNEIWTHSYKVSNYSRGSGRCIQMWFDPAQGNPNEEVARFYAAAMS

In the case of `Nc1nc2ncc(CNc3ccc(C(=O)N[C@@H](CCC(=O)O)C(=O)O)c([18F])c3)nc2c(=O)[nH]1` [2′-[^18F]fluoro-folic acid], the “specific uptake of the radiotracer in folate receptor-positive KB tumors, ratio of specific blockade” value (folate receptor [1]) is reported as 86.6%, the “uptake in folate receptor-positive tissues (FIG. 1)” value (folate receptor [2]; ex vivo biodistribution, nude mice bearing KB xenografts) is reported as “high specific uptake” and the “specific uptake in the kidneys, specific blockade” value (folate receptor [2]; nude mice, kidneys, ~2 MBq radiotracer, blockade group 200 μg natural folic acid 10 min prior, 90 min post injection) is reported as 95.5%. For the same compound, the “uptake of the radiotracer in the kidney cortex” value (folate receptor [3]; PET, kidney cortex, 30-90 min post injection) was “high specific uptake”, the “uptake of the radiotracer in the kidney medulla” value (folate receptor [3]; PET, kidney medulla, 30-90 min post injection) was “no uptake” and the “specificity of uptake (blockade by natural folic acid)” value (folate receptor [3]; ca. 10 MBq, blockade group 200 μg natural folic acid 10 min prior, PET 30-90 min post injection) was “highly specific and blocked by natural folic acid”.
